Like-named read-outs stand apart in the source and are kept apart here.
How the values were obtained:
[1] = target: T1, PKC β II (Homo sapiens, UniProt P05771); assay: PKC enzyme assay (BIOTRAK Protein kinase C enzyme assay system, 32P-ATP phosphorylation of peptide […]); format: biochemical; conditions: for Ratio α/β: IC50 PKC α / IC50 PKC β II
T1 construct: purchased CALBIOCHEM

[2] = target: T2, PKC α (Homo sapiens, UniProt P17252); assay: as above; format: biochemical
T2 construct: purchased CALBIOCHEM
Summary of the method: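 Recombinant human PKC (400 ng/ml solution) phosphorylated the supplied peptide with [γ-32P]ATP in calcium, phosphatidylserine/PMA, DTT and Mg-ATP buffer, 15 min at 37°C. Compounds were tested at 1 nM-10 µM final. Phosphocellulose-bound radioactivity relative to DMSO gave inhibition, from which IC50 was calculated.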

[3] = Protein Kinase C, Human Recombinant, test substance 1 nM-10 µM, 37°C, 15 minutes, read-out: Inhibition of PKC activity IC50 PKC β II
[4] = read-out: Inhibition of PKC activity IC50 PKC α, Protein Kinase C, Human Recombinant, test substance 1 nM-10 µM, 37°C, 15 minutes
[5] = Protein Kinase C, Human Recombinant, test substance 1 nM-10 µM, 37°C, 15 minutes, read-out: Inhibition of PKC activity IC50 PKC α
[6] = read-out: Inhibition of PKC activity IC50 PKC β II, Protein Kinase C, Human Recombinant, test substance 1 nM-10 µM, 37°C, 15 minutes

T1 sequence (P05771 other isoform, or with tags, fused parts or gaps): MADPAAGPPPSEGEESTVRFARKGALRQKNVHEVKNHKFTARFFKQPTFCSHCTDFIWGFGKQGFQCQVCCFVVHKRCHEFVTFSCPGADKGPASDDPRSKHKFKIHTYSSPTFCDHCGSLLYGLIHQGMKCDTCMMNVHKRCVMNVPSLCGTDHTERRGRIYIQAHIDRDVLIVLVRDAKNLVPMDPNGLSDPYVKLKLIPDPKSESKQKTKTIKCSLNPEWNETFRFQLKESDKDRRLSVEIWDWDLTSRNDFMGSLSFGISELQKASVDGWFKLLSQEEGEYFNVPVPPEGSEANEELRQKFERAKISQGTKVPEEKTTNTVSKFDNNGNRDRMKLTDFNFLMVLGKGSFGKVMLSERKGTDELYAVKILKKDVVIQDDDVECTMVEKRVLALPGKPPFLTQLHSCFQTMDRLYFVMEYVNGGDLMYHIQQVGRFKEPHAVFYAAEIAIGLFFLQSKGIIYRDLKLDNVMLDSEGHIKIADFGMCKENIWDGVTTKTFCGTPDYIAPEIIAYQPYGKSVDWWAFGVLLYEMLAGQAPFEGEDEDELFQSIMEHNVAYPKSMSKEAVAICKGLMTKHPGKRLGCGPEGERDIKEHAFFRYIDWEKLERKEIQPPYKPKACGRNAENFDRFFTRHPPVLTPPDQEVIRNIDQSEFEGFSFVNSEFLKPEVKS

SMILES | Ratio α/β [1] | IC50 [1, 3] | IC50 [2, 4] | IC50 [2, 5] | IC50 [1, 6] | IC50 [1] | IC50 [2]
CN(C)C[C@H]1CCc2c(C3=C(Nc4ccccc4)C(=O)NC3=O)c3ccccc3n2C1 [Example 4-55] | 63 | 0.004 µM | 0.252 µM | – | – | – | –
O=C1NC(=O)C(c2c3n(c4ccccc24)C[C@H](CO)C3)=C1Nc1ccccc1 [Example 4-58] | 73 | 0.014 µM | 1.02 µM | – | – | – | –
O=C1NC(=O)C(c2cn(CCCn3ccnc3)c3ccccc23)=C1Nc1ccc(F)cc1 [Example 2-68, 3-[(4-fluorophenyl)amino]-4-[1-(3-imidazol-1-ylpropyl)-1H-indol-3-yl]-1H-pyrrole-2,5-dione] | 53 | 0.006 µM | – | 0.315 µM | – | – | –
CCNCC1Cc2c(C3=C(Nc4ccccc4)C(=O)NC3=O)c3ccccc3n2C1 (stereo not shown) [Example 4-31] | 64 | – | 0.186 µM | – | 0.003 µM | – | –
O=C1NC(=O)C(c2cn(CCCCCN3CCC(O)CC3)c3ccccc23)=C1Nc1ccccc1 [Example 2-28, 3-[1-{5-(4-hydroxypiperidino)pentyl}-1H-indol-3-yl]-4-(phenylamino)-1H-pyrrole-2,5-dione] | 43 | 0.025 µM | – | 1.08 µM | – | – | –
Cl.N=C(N)N1CCC(Cn2cc(C3=C(Nc4ccccc4)C(=O)NC3=O)c3ccccc32)CC1 [Example 3-7, 3-[1-{(1-amidinopiperidin-4-yl)methyl}-1H-indol-3-yl]-4-(phenylamino)-1H-pyrrole-2,5-dione hydrochloride] | 46 | 0.056 µM | – | 2.56 µM | – | – | –
CN(C)CCCn1cc(C2=C(Nc3cccc(Cl)c3)C(=O)NC2=O)c2ccccc21 [Example 2-12, 3-[1-(3-dimethylaminopropyl)-1H-indol-3-yl]-4-[(3-chlorophenyl)amino]-1H-pyrrole-2,5-dione] | 56 | 0.01 µM | – | 0.558 µM | – | – | –
O=C1NC(=O)C(c2cn(CCCN3CCC(O)CC3)c3ccccc23)=C1Nc1ccccc1 [Example 2-25, 3-[1-{3-(4-hydroxypiperidino)propyl}-1H-indol-3-yl]-4-(phenylamino)-1H-pyrrole-2,5-dione] | 46 | 0.009 µM | – | 0.413 µM | – | – | –
O=C1NC(=O)C(c2cn(CCO)c3ccccc23)=C1Nc1ccccc1 [Example 2-4, 3-[1-(2-hydroxyethyl)-1H-indol-3-yl]-4-(phenylamino)-1H-pyrrole-2,5-dione] | 79 | 0.073 µM | – | 5.8 µM | – | – | –
O=C1NC(=O)C(c2c3n(c4ccccc24)CC(Cn2ccnc2)C3)=C1Nc1ccccc1 (stereo not shown) [Example 4-37] | 85 | – | 0.592 µM | – | 0.007 µM | – | –
O=C1NC(=O)C(c2cn(CCN3CCC(O)CC3)c3ccccc23)=C1Nc1ccccc1 [Example 2-47, 3-[1-{2-(4-hydroxypiperidino)ethyl}-1H-indol-3-yl]-4-(phenylamino)-1H-pyrrole-2,5-dione] | 36 | 0.066 µM | – | 2.34 µM | – | – | –
CN1CCN(CCCCn2cc(C3=C(Nc4ccccc4)C(=O)NC3=O)c3ccccc32)CC1 [Example 2-29, 3-[1-{4-(4-methylpiperazin-1-yl)butyl}-1H-indol-3-yl]-4-(phenylamino)-1H-pyrrole-2,5-dione] | 75 | 0.025 µM | – | 1.87 µM | – | – | –
CN(C)CCn1cc(C2=C(Nc3ccccc3)C(=O)NC2=O)c2ccccc21 [Example 2-9, 3-[1-(2-dimethylaminoethyl)-1H-indol-3-yl]-4-(phenylamino)-1H-pyrrole-2,5-dione] | 77 | 0.028 µM | – | 2.16 µM | – | – | –
O=C1NC(=O)C(c2cn(CC3CCCNC3)c3ccccc23)=C1Nc1ccccc1 (stereo not shown) [Example 3-1, 3-(phenylamino)-4-[1-(3-piperidylmethyl)-1H-indol-3-yl]-1H-pyrrole-2,5-dione] | 27 | 0.018 µM | – | 0.484 µM | – | – | –
CNC[C@H]1Cc2c(C3=C(Nc4ccccc4)C(=O)NC3=O)c3ccccc3n2C1 [Example 4-70] | 159 | – | 0.159 µM | – | 0.001 µM | – | –
O=C1NC(=O)C(c2c3n(c4ccccc24)CC(CN2CCC(O)CC2)C3)=C1Nc1ccccc1 (stereo not shown) [Example 4-27] | 64 | – | 0.831 µM | – | 0.013 µM | – | –

SMILES | Ratio α/β [1] | IC50 [1, 3] | IC50 [2, 4] | IC50 [2, 5] | IC50 [1, 6] | IC50 [1] | IC50 [2]
CN(C)CCCCn1cc(C2=C(Nc3ccccc3)C(=O)NC2=O)c2ccccc21 [Example 2-10, 3-[1-(4-dimethylaminobutyl)-1H-indol-3-yl]-4-(phenylamino)-1H-pyrrole-2,5-dione] | 49 | 0.015 µM | – | 0.73 µM | – | – | –
O=C1NC(=O)C(c2c[nH]c3ccccc23)=C1Nc1cccc(Br)c1 [Example 1-10, 3-[(3-bromophenyl)amino]-4-(1H-indol-3-yl)-1H-pyrrole-2,5-dione] | 37 | 0.226 µM | – | 8.34 µM | – | – | –
O=C1NC(=O)C(c2cn(CCCCN3CCC(O)CC3)c3ccccc23)=C1Nc1cccc(Cl)c1 [Example 2-27, 3-[(3-chlorophenyl)amino]-4-[1-{4-(4-hydroxypiperidino)butyl}-1H-indol-3-yl]-1H-pyrrole-2,5-dione] | 37 | 0.026 µM | – | 0.973 µM | – | – | –
O=C1NC(=O)C(c2cn(CCCN3CCCCC3)c3ccccc23)=C1Nc1ccccc1 [Example 2-20, 3-[1-(3-piperidinopropyl)-1H-indol-3-yl]-4-(phenylamino)-1H-pyrrole-2,5-dione] | – | 0.017 µM | – | 0.726 µM | – | – | –
CCN(C)C[C@@H]1CCc2c(C3=C(Nc4cccc(SC)c4)C(=O)NC3=O)c3ccccc3n2C1 [Example 4-48] | 74 | – | 2.53 µM | – | 0.034 µM | – | –
O=C1NC(=O)C(c2cn(CCCn3cccn3)c3ccccc23)=C1Nc1ccccc1 [Example 2-37, 3-(phenylamino)-4-[1-(3-pyrazol-1-ylpropyl)-1H-indol-3-yl]-1H-pyrrole-2,5-dione] | 17 | 0.06 µM | – | > 1 µM | – | – | –
CCN(C)C[C@H]1Cc2c(C3=C(Nc4ccc(F)cc4)C(=O)NC3=O)c3ccccc3n2C1 [Example 4-66] | 53 | – | 0.632 µM | – | 0.012 µM | – | –
CCN(C)C[C@H]1CCn2c(c(C3=C(Nc4ccccc4)C(=O)NC3=O)c3ccccc32)C1 [Example 4-24] | 68 | – | 0.204 µM | – | 0.003 µM | – | –
O=C1NC(=O)C(c2cn(CCCN3CCSCC3)c3ccccc23)=C1Nc1ccccc1 [Example 2-21, 3-(phenylamino)-4-[1-(3-thiomorpholinopropyl)-1H-indol-3-yl]-1H-pyrrole-2,5-dione] | 46 | 0.017 µM | – | 0.773 µM | – | – | –
Cc1c(C2=C(Nc3ccccc3)C(=O)NC2=O)c2ccccc2n1CCCN1CCCCC1 [Example 2-53, 3-[2-methyl-1-(3-piperidinopropyl)-1H-indol-3-yl]-4-(phenylamino)-1H-pyrrole-2,5-dione] | 102 | 0.098 µM | – | > 10 µM | – | – | –
CCN(C)C[C@@H]1CCc2c(C3=C(Nc4ccccc4)C(=O)NC3=O)c3ccccc3n2C1 [Example 4-40] | 93 | – | – | – | – | 0.006 µM | 0.557 µM
CCNCC1Cc2c(C3=C(Nc4ccc(F)cc4)C(=O)NC3=O)c3ccccc3n2C1 (stereo not shown) [Example 4-33] | 75 | – | 0.321 µM | – | 0.004 µM | – | –
O=C1NC(=O)C(c2c3n(c4ccccc24)CC[C@H](CN2CCOCC2)C3)=C1Nc1ccccc1 [Example 4-26] | 85 | – | 0.768 µM | – | 0.009 µM | – | –
CN1CCCC(Cn2cc(C3=C(Nc4ccccc4)C(=O)NC3=O)c3ccccc32)C1 (stereo not shown) [Example 3-3, 3-[1-{(1-methylpiperidin-3-yl)methyl}-1H-indol-3-yl]-4-(phenylamino)-1H-pyrrole-2,5-dione] | 47 | 0.057 µM | – | 2.65 µM | – | – | –
O=C1NC(=O)C(c2c3n(c4ccccc24)CCC(Cn2ccnc2)C3)=C1Nc1ccccc1 (stereo not shown) [Example 4-3, 3-[8-(1-imidazolylmethyl)-6,7,8,9-tetrahydropyrido[1,2-a]indol-10-yl]-4-(phenylamino)-1H-pyrrole-2,5-dione] | – | – | – | – | – | 0.016 µM | 1.63 µM
CN(C)C[C@@H]1CCc2c(C3=C(Nc4ccccc4)C(=O)NC3=O)c3ccccc3n2C1 [Example 4-41] | 74 | 0.006 µM | 0.445 µM | – | – | – | –
